Data from patent US20240239735A1, “ACID ADDITION SALT OF ROCK INHIBITOR, AND CRYSTAL FORM, COMPOSITION AND PHARMACEUTICAL USE THEREOF” (WUHAN LL SCIENCE AND TECHNOLOGY DEVELOPMENT CO., LTD., priority 2021, published 2024).
Converted amounts (≈) assume the structure as drawn. Like-named read-outs stand apart in the source and are kept apart here.

Experiments:
[1] = Solubility test in biologically relevant media at 37° C. (HPLC, pH, XRPD of filter cake); assay type: physicochemical
Protocol: (§1) The instrument used for HIPLC analysis was Agilent TIPLC 1260 series.
The suspension was incubated by shaking on a shaker at 100 rpm at 37° C. 1 mL of the dispersion was taken at 0.5 h, 2 h, and 24 h, and filtered. The filtrate was tested for the solubility by HPLC and for the pH value by a pH meter. The filter cake was characterized for the crystal form by XRPD.

[2] = Pharmacokinetic study in SD rats, intragastric administration; assay type: in vivo; details: 20 mg/kg in 5% TPGS, 20 mg/kg; for Cmax: compound A in plasma
Protocol: In the experiment, 12 SD rats (purchased from Beijing Vital River Laboratory Animal Technology Co., Ltd.) weighing 180-280 g, half male and female, were used. The animals were randomly divided into four groups of 3 animals each, with female rats in the first and third groups and male rats in the second and fourth groups.
Blood was collected from the orbital venous plexus of rats at various time points (0.167 h, 0.5 h, 1 h, 2 h, 3 h, 4 h, 6 h, 9 h, 12 h, and 24 h) after administration. The concentration of compound A in the plasma was determined.
Data will be analyzed by a non-compartmental model using WinNonlin (version 5.2.1 Pharsight, Mountain View, CA) to obtain PK parameters (parameters selected for different routes of administration, such as C0, Cmax, Tmax, AUC0-last, AUCinf, T1/2, CL, and Vz).

[3] = Hygroscopicity test by dynamic vapor sorption (DVS); assay type: physicochemical; details: for DVS weight gain (Wt. gain %): 25° C.; for Hygroscopicity: DVS, assessment in words
Protocol: The sample was subjected to water adsorption/desorption tests using a Vsorp (ProUmid GmbH & Co. KG, Germany) water adsorption analyzer. The sample was placed in a tared sample tray, and the change in the sample mass with humidity (0-90% RH) at 25° C. was recorded.

[4] = Solid state stability test (HPLC purity, XRPD); assay type: physicochemical; details: for Initial purity (Area %): 0 weeks; for Initial purity (Area %) / Purity (Area %): 265 nm; for Physical and chemical stability: 60° C./sealed and 40° C./75% RH open
Protocol: as §1
The samples after being stored 0 days, 1 week, and 2 weeks were taken and each dissolved in a diluent to prepare about 1.0 mg/mL solution, which was tested for chemical stability by HPLC. The solid sample after being stored for 1 week or 2 weeks was tested for physical stability by XRPD.

[5] = Hygroscopicity test by dynamic vapor sorption (DVS); assay type: physicochemical; details: from 0.0% RH to 95% RH
[6] = female, SD, rat, plasma, po, female SD rats

Question: With `COc1cccc(CNC(=O)N2CCc3cc(-c4c[nH]nc4N)c(F)cc32)c1` [Free base crystal form II, 5-(3-amino-1H-pyrazol-4-yl)-6-fluoro-N-(3-methoxybenzyl)indoline-1-carboxamide] as the compound, how does the Solubility ([1]; FaSSIF, 37° C., 0.5 h) read?
Answer: 8.24 µg/mL (≈ 21.6 µM)

Question: What about the Solubility ([1]; FaSSIF, 37° C., 2 h) of the same compound?
Answer: 5.14 µg/mL (≈ 13.5 µM)

Question: What about the Solubility ([1]; FaSSIF, 37° C., 24 h) of the same compound?
Answer: 6.44 µg/mL (≈ 16.9 µM)

Question: And the “XRPD (crystal form of filter cake)” value ([1]; FaSSIF, 37° C., 24 h)?
Answer: Remains unchanged

Question: What about the “XRPD (crystal form of filter cake)” value ([1]; FaSSIF, 37° C., 24 h, listed as free base crystal form II) of the same compound?
Answer: remained unchanged

Question: What about the pH of filtrate ([1]; FaSSIF, 24 h (0 h: 6.50)) of the same compound?
Answer: 6.49

Question: And the Solubility ([1]; FeSSIF, 37° C., 0.5 h)?
Answer: 33.38 µg/mL (≈ 87.5 µM)

Question: And the Solubility ([1]; FeSSIF, 37° C., 2 h)?
Answer: 42.87 µg/mL (≈ 112 µM)

Question: What about the Solubility ([1]; FeSSIF, 37° C., 24 h) of the same compound?
Answer: 48.68 µg/mL (≈ 128 µM)

Question: What about the “XRPD (crystal form of filter cake)” value ([1]; FeSSIF, 37° C., 24 h) of the same compound?
Answer: Remains unchanged

Question: What about the “XRPD (crystal form of filter cake)” value ([1]; FeSSIF, 37° C., 24 h, listed as free base crystal form II) of the same compound?
Answer: remained unchanged

Question: And the pH of filtrate ([1]; FeSSIF, 24 h (0 h: 5.00))?
Answer: 4.99

Question: What about the Solubility ([1]; SGF medium, 0.5 h, rounded values) of the same compound?
Answer: 1000 µg/mL (≈ 2620 µM)

Question: And the Solubility ([1]; SGF, 37° C., 0.5 h)?
Answer: 1010 µg/mL (≈ 2650 µM)

Question: And the Solubility ([1]; SGF, 37° C., 2 h)?
Answer: 1027 µg/mL (≈ 2690 µM)

Question: What about the Solubility ([1]; SGF, 37° C., 24 h) of the same compound?
Answer: 1167 µg/mL (≈ 3060 µM)

Question: What about the “XRPD (crystal form of filter cake)” value ([1]; SGF, 37° C., 24 h) of the same compound?
Answer: Remains unchanged

Question: What about the “XRPD (crystal form of filter cake)” value ([1]; SGF, 37° C., 24 h, listed as free base crystal form II) of the same compound?
Answer: remained unchanged

Question: What about the pH of filtrate ([1]; SGF, 24 h (0 h: 1.20)) of the same compound?
Answer: 1.29

Question: What about the AUClast ([2]; female SD rats) of the same compound?
Answer: 14778 ± 3318 ng·h/mL

Question: What about the AUC(0-inf) [2, 6] of the same compound?
Answer: 18160 ± 150 ng·h/mL

Question: And the half-life [2, 6]?
Answer: 2.88 ± 0.46 h

Question: What about the Cmax ([2]; female, SD, rat, plasma, po, female SD rats, read-out: Cmax) of the same compound?
Answer: 3620 ± 321 ng/mL

Question: What about the Tmax ([2]; female, SD, rat, plasma, po, female SD rats, read-out: Tmax) of the same compound?
Answer: 0.67 ± 0.17 h

Question: And the AUCinf ([2]; male SD rats)?
Answer: 19790 ± 2233 ng·h/mL

Question: What about the AUClast ([2]; male SD rats) of the same compound?
Answer: 19604 ± 2132 ng·h/mL

Question: What about the T1/2 ([2]; male SD rats) of the same compound?
Answer: 3.33 ± 0.40 h

Question: What about the Tmax ([2]; male SD rats) of the same compound?
Answer: 1.00 ± 0.00 h

Question: What about the Cmax ([2]; male SD rats) of the same compound?
Answer: 3297 ± 676 ng/mL

Question: And the “XRPD pattern / crystal form before and after the DVS test” value [3]?
Answer: crystal form remained unchanged

Question: And the “DVS weight gain (Wt. gain %)” value ([3]; 0.0% RH to 80% RH)?
Answer: 1.3%

Question: What about the “DVS weight gain (Wt. gain %)” value ([3]; 0.0% RH to 90% RH) of the same compound?
Answer: 1.5%

Question: What about the Hygroscopicity [3] of the same compound?
Answer: slightly hygroscopic

Question: And the “Initial purity (Area %)” value ([4]; HPLC method of 7-day test)?
Answer: 98.62 Area %

Question: And the “Initial purity (Area %)” value ([4]; HPLC method of 14-day test)?
Answer: 99.83 Area %

Question: What about the “Purity (Area %)” value ([4]; 1 week, 40° C./75% RH open) of the same compound?
Answer: 98.62 Area %

Question: What about the “Purity (Area %)” value ([4]; 1 week, 60° C./sealed) of the same compound?
Answer: 98.64 Area %

Question: What about the “Purity (Area %)” value ([4]; 2 weeks, 40° C./75% RH open) of the same compound?
Answer: 99.83 Area %

Question: What about the “Purity (Area %)” value ([4]; 2 weeks, 60° C./sealed) of the same compound?
Answer: 99.83 Area %

Question: And the “Physical and chemical stability” value ([4]; one week)?
Answer: physically and chemically stable

Question: What about the “Physical and chemical stability” value ([4]; two weeks) of the same compound?
Answer: physically and chemically stable

Question: What does the source list for `COc1cccc(CNC(=O)N2CCc3cc(-c4c[nH]nc4N)c(F)cc32)c1` [Fumarate crystal form II]?
Answer: Solubility ([1]; FaSSIF, 37° C., 24 h): 0.28 µg/mL; pH of filtrate ([1]; FaSSIF, 24 h (0 h: 6.50)): 6.2; Solubility ([1]; FeSSIF, 37° C., 24 h): 132.92 µg/mL; pH of filtrate ([1]; FeSSIF, 24 h (0 h: 5.00)): 4.9; Solubility ([1]; SGF, 37° C., 24 h): 1425.24 µg/mL; XRPD (crystal form of filter cake) ([1]; SGF, 37° C., 24 h): Remains unchanged; pH of filtrate ([1]; SGF, 24 h (0 h: 1.20)): 1.2; XRPD pattern / crystal form before and after the DVS test [3]: crystal form remained unchanged; Hygroscopicity [3]: non-hygroscopic; Initial purity (Area %) ([4]; HPLC method of 7-day test): 99.30 Area %; Purity (Area %) ([4]; 1 week, 40° C./75% RH open): 99.20 Area %; Purity (Area %) ([4]; 1 week, 60° C./sealed): 99.20 Area %; DVS water absorbed [5]: about 0.2%
